According to patent publication US11426356B2, “Crosslinked particles” (Pendant Biosciences, Inc., priority 2015, dated 2022):
Blank lines part the entries; values can stand above or below the compound they belong to.

Experiments:
Format in all cases: physicochemical
[1] = Drug loading of crosslinked PVL-co-PAVL macroparticles (cylinders)
Description: (§1) Unless otherwise indicated, quantitation of drug products was carried out using HPLC methods. Calibration curves for drugs used herein (e.g., triamcinolone, triamcinolone hexacetonide, triamcinolone acetonide, paclitaxel, and curcumin) were prepared by injecting known concentrations of the drugs and measuring the area under the curve at each concentration. Analyses were carried out using an Agilent Zorbax Eclipse XDB-C18 column (150×4.6 mm i.d.) with a 12.5×4.6 mm guard column. The parameters for each drug are given below in Table 1
A crosslinked macroparticle weighing about 15 mg comprising PVL-co-PAVL (MW=14760 g/mol, 13% AVL, 87% VL) was loaded with 2.5 mg paclitaxel by overnight soaking in THF followed by the slow addition of 50 mL PBS containing 0.1% Tween.

[2] = Curcumin loading, release and post-release extraction of microparticle flakes
Description: as §1
Crosslinked microparticles (15 mg) were loaded with 2.5 mg curcumin by overnight soaking in THF followed by the slow addition of 50 mL PBS containing 0.1% Tween. The microparticles were rinsed with THF to remove free curcumin and dried overnight.
It was observed that microparticles thus produced formed “flakes” that could not be re-suspended in THF or PBS buffer solution upon drying. […] The flakes could not be re-suspended in PBS buffer.
The release profile of curcumin of microparticle flakes produced by the method described above. The release profile is further quantified in Table 6, below.

[3] = Preliminary drug release from crosslinked macroparticles
Description: as §1
The macroparticles were suspended in PBS (0.1% Tween) and the release rate was observed. The macroparticles released 5% of the paclitaxel after 3 hours at room temperature and about 5% after 24 hours at room temperature.

[4] = Loading of particles with triamcinolone hexacetonide (swelling in THF, slow addition of water); conditions: included surface-bound drug or free drug in solution
Description: In some embodiments, the loading procedure can affect the amount of drug that is absorbed into a particle of the present disclosure. For example, as set forth in Examples 7 and 8, 25 mg of 75:25 (mPEG-PVL-PAVL:PVL-PAVL) particles were swollen overnight with 2 mg/mL triamcinolone hexacetonide in THF. However, without wishing to be bound by theory, slow addition of greater volumes of water can facilitate greater uptake of triamcinolone hexacetonide by allowing the drug to preferentially partition into the particles. As set forth in Examples 7 and 8, slow addition of water enabled 67% loading efficiency. Additional parameters, in addition to the rate of water addition, that can affect the loading of a drug into a particle of the present disclosure are, for instance, the solvent in which the drug is dissolved, the time that the particles soak with the drug, and the volume of water used. Other parameters include the pH and the ionic strength of the solvent. For example, protic organic solvents such as methanol or ethanol can be used in place of water to facilitate loading of drug into a particle of the present disclosure.
Unless otherwise indicated, quantitation of drug products was carried out using HPLC methods. […]

[5] = Release of triamcinolone hexacetonide from loaded particles in dissolution media
Description: as §1
25 mg of 75:25 (mPEG-PVL-PAVL:PVL-PAVL) particles were swollen overnight with 2 mg/mL triamcinolone hexacetonide in THF. 10 mL water including 0.1% tween was then added dropwise. The resulting mixture was centrifuged, the supernatant was collected, and the addition of 10 mL water including 0.1% tween was added dropwise again (2×; 30 mL total).
Without wishing to be bound by theory, this may be due to the fact that the triamcinolone hexacetonide crystallized on the surface of the particles. Without wishing to be bound by theory, this may be due to the relatively fast addition of water and the limited solubility of triamcinolone hexacetonide, which caused it to crystallize.
The loading efficiency, which included surface-bound drug or free drug in solution, was 67%. Upon suspending the particles in dissolution media, 20% of the triamcinolone hexacetonide was released within an hour, and 30% was released within 2 hours.

[6] = triamcinolone hexacetonide, first cylinder (labelled with a circle)
[7] = particles of Example 8 suspended in dissolution media
[8] = about 15 mg PVL-co-PAVL macroparticle loaded with 2.5 mg paclitaxel
[9] = about 15 mg PVL-co-PAVL macroparticle, PBS (0.1% Tween), room temperature

capacity ([1]; curcumin-loaded cylinder): 9.64%
amount of drug in the cylinder ([1]; curcumin-loaded cylinder dissolved in THF): 1.176 mg
curcumin recovered in post-release extraction of the flakes ([2]; after 48 hours release): 57%
curcumin released after 48 hours ([2]; from microparticle flakes): 51%
curcumin released after about eight days ([3]; curcumin-loaded cylinder, FIG. 21): almost all
Structure (SMILES): COc1cc(/C=C/C(=O)CC(=O)/C=C/c2ccc(O)c(OC)c2)ccc1O [curcumin]

amount of drug in the first cylinder [1, 6]: 1.118 mg
capacity of the first cylinder [1, 6]: 9.12%
capacity of the second cylinder ([1]; triamcinolone hexacetonide, second cylinder (labelled with an X)): 11.651%
amount of drug in the second cylinder ([1]; triamcinolone hexacetonide, second cylinder (labelled with an X), in mg): 0.901
loading efficiency [4]: 67%
release profile ([5]; Example 7: 75:25 (mPEG-PVL-PAVL:PVL-PAVL) particles, relatively fast addition of water, surface-crystallized drug): relatively rapid release
triamcinolone hexacetonide released within 2 hours [5, 7]: 30%
triamcinolone hexacetonide released within an hour [5, 7]: 20%
total drug released after about 6 days ([3]; both triamcinolone hexacetonide cylinders, FIG. 23): about 60%
Structure (SMILES): CC(C)(C)CC(=O)OCC(=O)[C@@]12OC(C)(C)O[C@@H]1C[C@H]1[C@@H]3CCC4=CC(=O)C=C[C@]4(C)[C@@]3(F)[C@@H](O)C[C@@]12C [triamcinolone hexacetonide]

loading capacity [1, 8]: 1.7 % w/w
loading efficiency [1, 8]: 30%
paclitaxel released after 3 hours [3, 9]: 5%
paclitaxel released after 24 hours [3, 9]: about 5%
Structure (SMILES): CC(=O)O[C@H]1C(=O)[C@@]2(C)[C@H]([C@H](OC(=O)c3ccccc3)[C@]3(O)C[C@H](OC(=O)[C@H](O)[C@@H](NC(=O)c4ccccc4)c4ccccc4)C(C)=C1C3(C)C)[C@]1(OC(C)=O)CO[C@@H]1C[C@@H]2O [paclitaxel]
